# Results from patent US11708562B2, “Differentiation of human embryonic stem cells” (Janssen Biotech, Inc., priority 2006, dated 2023).
# Where “and” joins values, the source holds several entries; their conditions need not be identical. Identical values can stand only once.
# Experiments:
# [1] = tested on: H9P49 embryonic stem cells; assay: Pancreatic endoderm under feeder-free conditions: evaluation of retinoic acid analogues (PCR); assay type: cell-based, human; settings: 10 μM AM-580
# Description: At day 5, cells were collected for evaluation by FACS and real-time PCR. […] The resulting definitive endoderm cells at day 5 were exposed to the following media conditions to induce pancreatic endoderm formation: culturing in DMEM/F12 media supplemented with 2% FBS and 1 μM all-trans retinoic acid (RA) (Catalog # R2625, Sigma, MO), or 0.1-10 μM AM-580 (4-[(5,6,7,8-Tetrahydro-5,5,8,8-tetramethyl-2-naphthalenyl)carboxamido]benzoic acid, Catalog # A8843, Sigma, MO), or 0.1-1 μM TTNPB (4-[(E)-2-(5,6,7,8-Tetrahydro-5,5,8,8-tetramethyl-2-naphthalenyl)-1-propenyl]benzoic acid Arotinoid acid, Catalog # T3757, Sigma, MO) for 3 days. AM-580 and TITNPB are retinoic acid analogs with affinity for retinoic acid receptors. RA treatment was followed by additional three day treatment in DMEM/F12 media supplemented with 2% FBS and 20-50 ng/ml bFGF (Catalog # F0291, Sigma, MO). Cultures were harvested and samples of mRNA were collected for analysis.
# [2] = tested on: human embryonic stem cell line H9; assay: Cells from […] differentiated on MEFs: role of Wnt-3a (real-time PCR, FACS); assay type: cell-based
# Description: Cells from the human embryonic stem cell line H9 cultured on […]™ for at least five passages were seeded onto MEF feeders in ES media.
# At day 3 and 5, the cultures were analyzed by real time PCR for SOX-17, SOX-7, Alpha-fetal protein (AFP), CXCR4, Brychyury (Bry), gooscecoid (GSC), HNF-3 beta, GATA4, hTERT and Oct4. AFP and SOX-7 are regarded as visceral endoderm markers while GATA4, HNF-3beta and SOX-17 represent definite endoderm markers and GSC, Bry, and CXCR4 represent markers of primitive streak. hTERT and Oct-4 are markers for self renewal and pluripotency respectively. FACS analysis was also performed at day 3 and 5.
# [3] = tested on: H9P46-P48 embryonic stem cells; assay: Definitive endoderm on […]: effect of GSK-3B inhibitor (FACS CXCR4, PCR); assay type: cell-based, human; settings: 20 ng/ml of Wnt-3a or 100-1000 nM GSK-3B inhibitor
# Description: In order to confirm that the effect of Wnt-3a was through the Wnt pathway, a GSK-3 inhibitor was used to activate the downstream targets of Wnt, such as beta catenin. […] FIG. 29A depicts the expression of CXCR4 by FACS at day 5 in the absence of Wnt-3a or GSK-3B inhibitor, b)+20 ng/ml Wnt-3a, c)+1000 nM GSK-3B inhibitor IX, d)+500 nM GSK-3B inhibitor IX, e)+100 nM GSK-3B inhibitor IX, f)+10 nM GSK-3B inhibitor IX, g)+100 nM GSK-3B inhibitor IX for days 1-2, and h)+10 nM GSK-3B inhibitor IX for days 1-2.
# [4] = tested on: human embryonic stem cell line H1 at passage 55; assay: Definitive endoderm on human serum coated plates (real-time PCR); assay type: cell-based
# Description: Cultures of the human embryonic stem cell line H1 at passage 55 were grown and differentiated on human serum (Sigma, # H1388, MO) coated plates. 0.5 ml of human serum was added to each well of 6 well tissue culture treated dish, incubated for 1 hr at room temperature, and aspirated before adding human embryonic stem cells. […] These findings parallel our findings for human embryonic stem cells cultured on […]™ or human fibronectin coated plates.
# [5] = tested on: H9P46 embryonic stem cells; assay: Definitive endoderm on […]: effective dose of Wnt-3a (FACS, PCR, cell number); assay type: cell-based, human
# Description: Control cultures were not treated with Wnt-3a. FIG. 27A depicts the expression of CXCR4 by FACS at day 5 in the absence of Wnt-3a, b) 10 ng/ml Wnt-3a, c) 20 ng/ml Wnt-3a and d) 50 ng/ml Wnt-3a. In the absence of Wnt-3a the expression of CXCR4 was very low. […] Real-time PCR results (FIG. 28A) also confirm this finding.
# In a separate study, H9p52 cells were plated on 1:30 low growth factor […]™. For the first 2 days of the DE protocol a range of Wnt3A doses was used: 10 ng/ml, 5 ng/ml and 1 ng/ml. […] The number of cells at the end of the experiment is noted in FIG. 28C.
# [6] = tested on: H9P53 embryonic stem cells; assay: Definitive endoderm on […]: combination of Wnt-3a, GSK-3B inhibitor, BMP-4; assay type: cell-based, human; settings: Wnt-3A plus GSK inhibitor in the presence of activin A
# Text: Results are expressed as fold increase over untreated cells. […] Results are expressed as fold increase over untreated cells.
# [7] = tested on: human embryonic stem cell line H9; assay: Cytokine array of cell lysates and conditioned media +/- Wnt3a (Table VII); assay type: cell-based; set-up: unit not given here; settings: 100 ng/ml Activin A + 10 ng/ml Wnt3a
# Description: The effect that Wnt-3a treatment has on cytokine expression was analyzed using a protein array. Cells of the human embryonic stem cell line H9 were cultured according to the methods described in Example 15. […] Cell lysates were prepared from cells of each treatment group, with a mammalian cell lysis kit (Sigma-Aldrich, MO). Conditioned media from each treatment group was collected and concentrated. Cytokine array analysis was completed using Cytokine Array panels provided by RayBiotech, GA (http://www.raybiotech.com/). Table VII lists cytokine, growth factor, and receptor expression following normalization of the data and background subtraction. For each panel, positive and negative controls are also included.
# [8] = tested on: H9 embryonic stem cells; assay: Immunofluorescence staining of DE markers +/- Wnt-3a; assay type: cell-based, human
# Text: Day 5 DE cultures of H9 cells were stained according to Example 10 for SOX-17, HNF-3B, GATA-4, N-cadherin, and E-cadherin. All nuclei were counter stained with DAPI.
# [9] = tested on: H9 cultures; assay: Definitive endoderm on varying concentrations of […] with Wnt-3a (real-time PCR); assay type: cell-based, human; settings: low serum, 100 ng/ml activin A and 20 ng/ml Wnt-3a
# Description: H9 cells were cultured on plates coated with regular […] at a 1:60 to 1:10 dilution. The plates were coated with […] for 1 hr at room temperature.
# [10] = tested on: H9P44 cells; assay: Definitive endoderm on MEFs with growth factor combinations: RT-PCR of definitive endoderm markers (Table V); assay type: cell-based, human; settings: H9P44 on MEF
# Description: H9P44 cells were plated onto 6 well plates previously coated with mitomycin treated mouse embryonic fibroblasts (MEF). Cells were grown until 70 to 80% confluency in ES cell medium consisting of DMEM/F12 (Invitrogen/GIBCO) supplemented with 20% knockout serum replacement, 100 nM MEM nonessential amino acids, 0.5 mM beta-mercaptoethanol, 2 mM L-glutamine (all from Invitrogen/GIBCO) and 8 ng/ml human basic fibroblast growth factor (bFGF) (R&D Systems).
# Growth factors were added to increasing concentration of FBS in a stepwise manner as indicated in the following regimen:
# All growth factors were purchased from R&D Systems, MN. A detailed description and concentration of growth factors for each treatment group is shown below. • 1. Control—No growth factor added • 2. […] IL-4 (10 ng/ml) • 10. SDF1a (20 ng/ml) • 11. […] BMP2 (100 ng/ml)+BMP-4 (100 ng/ml)+BMP-6 (100 ng/ml)+BMP-7 (100 ng/ml) • 13.
# For RT-PCR analysis, cells were analyzed for expression of selected panel of definitive endoderm markers.
# [11] = tested on: H7P44 and H9P46 embryonic stem cells; assay: Definitive endoderm on […]: role of Wnt ligands (FACS CXCR4, real-time PCR); assay type: cell-based, human; settings: H7 and H9; low serum+AA+/-Wnt ligands
# Description: In some of the cultures 20 ng/ml Wnt-3a (Catalog #1324-WN-002, R&D Systems, MN), 20 ng/ml Wnt-5a (Catalog #654-WN-010, R&D Systems, MN), 25 ng/ml Wnt-7a (Catalog #3008-WN-025, R&D Systems, MN), or 25 ng/ml Wnt-5b (Catalog #3006-WN-025, R&D Systems, MN) was added throughout the five day treatment. FIGS. 24A and 24B depicts phase contrast images of H9P46 definitive endoderm culture in the presence of high concentration of (a) AA or (b) AA+20 ng/ml Wnt-3a. FIGS. 25A, 25B, 25C and 25D depicts the expression of CXCR4 by FACS at day 5 for H7P44, and H9P46 lines cultured on […]™ (1:30 dilution) and exposed to the DE protocol+Wnt-3a (FIGS. 25B and 25D) and -Wnt-3a (FIGS. 25A and C).
# [12] = tested on: SA002 P38 cells; assay: Differentiation of SA002 ES line on […] to definitive endoderm; assay type: cell-based, human; settings: 20 ng/ml Wnt-3a
# Text: Expression of CXCR4 is depicted in FIGS. 45A, 45B and 45C: a) AA treatment b) AA+Wnt-3a c) AA+GSK-3B inhibitor.
Molecule,expression of PDX-1 [1],role in differentiation of cells cultured on MEFs to definitive endoderm [2],number of CXCR4 positive cells (FACS) [3],expression of definitive endoderm markers compared to activin A only [4],"number of CXCR4 positive cells (FACS) ([5]; 10-50 ng/ml of Wnt-3a, day 5)","Wnt3a dose sufficient for optimal cell expansion and definitive endoderm differentiation ([5]; H9p52, for 2 days) [ng/mL]",expression of CXCR4 (FACS) ([5]; absence versus 10 and 50 ng/ml Wnt-3a: 10 ng/ml compared with 50 ng/ml),"definitive endoderm markers, combination versus each agent by itself [6]",Axl expression ([7]; cell conditioned media),IL-1beta expression ([7]; cell conditioned media),IL-1ra expression ([7]; cell conditioned media),Axl expression ([7]; cell lysate),IL-1beta expression ([7]; cell lysate),IL-1ra expression ([7]; cell lysate),"nuclei stained positive for SOX-17, HNF-3beta and GATA-4 ([8]; 20 ng/ml Wnt-3a, day 5)",expression of e-cadherin ([8]; addition of Wnt-3a),"expression of CXCR4, GATA4, Goosecoid, HNF-3beta, and SOX-17 genes [9]",definitive endoderm markers on addition to high dose activin A in low serum [10],expression of definitive endoderm markers (real-time PCR) [11],expression of DE markers [12]
"CC1(C)CCC(C)(C)c2cc(C(=O)Nc3ccc(C(=O)O)cc3)ccc21 [AM-580, 4-[(5,6,7,8-Tetrahydro-5,5,8,8-tetramethyl-2-naphthalenyl)carboxamido]benzoic acid]",maintaining a high expression,,,,,,,,,,,,,,,,,,,
Wnt-3a,,does not appear to play a significant role,significantly increased,Robust expression,significantly increased,10,as effective as,do not lead to significant upregulation,610.40 and 748.34,316.59 and 278.30,354.23 and 581.75,88.59 and 139.03,352.05 and 312.08,302.68 and 198.48,significantly larger number,significant loss of expression,led to the expression,no significant upregulation,significant upregulation,required addition of Wnt-3A for robust expression of DE markers
